The values below come from patent US20180280337A1, “NUTRITIONAL COMPOSITIONS COMPRISING SN-1(3) MONOACYLGLYCEROLS FOR USE IN THE TREATMENT OF GROWTH DELAY IN INFANTS OR CHILDREN” (NESTEC S.A., priority 2014, published 2018).

Series [1] can be described thus: Lipid maldigestion or malabsorption rat model (XENICAL-induced): EPA level in red blood cells and tissue after feeding EPA glycerides or fish oil. The class given is in vivo. The following applies: for level of EPA incorporated in red blood cells: rats given XENICAL, day 7 data (FIG. 3). The method, then: The concept was tested in a lipid maldigestion or malabsorption rat model. The maldigestion or malabsorption condition was obtained using XENICAL® (ORLISTAT, tetrahydrolipstatin), a pancreatic and gastric lipases inhibitor. Rats were fed during 21 days with long-chain polyunsaturated fatty acid (LC-PUFA) supplements containing mainly eicosapentaenoic (EPA) acid. Fish oil was used as a source of triacylglycerols, and different EPA glycerides were evaluated: Vanillin acetal of 2-EPA (from Stepan Lipid Nutrition); 1,3 Diacetyl-2 EPA (from Stepan Lipid Nutrition) and Sn-1(3)-MAG-EPA (purchased from Cognis GmbH, Germany). XENICAL® (ORLISTAT) was given at a level sufficient to decrease lipid absorption by 40%. A group receiving fish oil without XENICAL® (ORLISTAT) was used as a positive control. At different time intervals (D3, D7, […]), the fatty acid profiles of red blood cells and plasma lipids were determined. At the end of the experiment, the fatty acid profiles of different tissues were determined. The main objective was to follow the level of EPA in red blood cells and plasma lipids. The main comparison evaluated was the difference in EPA level between the group receiving EPA glycerides such as EPA-containing sn-1(3) MAG, in combination with XENICAL® (ORLISTAT) and the positive control group […].

Series [2] is described as follows: Clinical study comparing sn-1(3) MAG and fish oil (TAG) in delivering EPA under lipid maldigestion induced by XENICAL. The class given is in vivo, humans. Particulars: for chronic effect: accretion of EPA in erythrocytes as percentage of total fatty acids: compared with fish oil + XENICAL, p=0.0001 (FIG. 6). The procedure:
This clinical study compared the efficacy of sn-1(3) MAG and fish oil (TAG) in delivering EPA in humans under lipid maldigestion conditions induced by XENICAL® (ORLISTAT). The comparison was tested in volunteers treated with XENICAL® to induce lipid maldigestion or not treated with XENICAL® (ORLISTAT). The primary objective was to assess accretion of EPA in erythrocytes over 21 days when consumed as fish oil (TAG) or sn-1(3) MAG. The secondary objectives were to assess accretion of EPA in plasma over 21 days and also to assess the pharmacokinetics of EPA after an acute dose either in the form of sn-1(3) MAG or TAG (AUC in chylomicrons over 10 hours postprandial). See FIG. 4 that describes the clinical study timeline.

Regarding `CCCCCCCCCCC[C@@H](C[C@@H]1OC(=O)[C@H]1CCCCCC)OC(=O)[C@H](CC(C)C)NC=O` [XENICAL, tetrahydrolipstatin, reference compound], in series [1] (fish oil + XENICAL compared with fish oil without XENICAL, day 7), the “effect of XENICAL on EPA incorporation in red blood cells” value is “decreases EPA incorporation in red blood cells”.
Turning to `CC/C=C\C/C=C\C/C=C\C/C=C\C/C=C\CCCC(=O)OCC(O)CO` (stereo not drawn) [sn-1(3) MAG, sn-1(3)-monoeicosapentaenoylglycerol], the “incorporation of LC-PUFAs in tissue” value in series [1] (conditions of lipid maldigestion or malabsorption (XENICAL), comparison of groups A, B and C) is “improved”. Further, the “level of EPA incorporated in red blood cells” value was “even higher than the fish oil group” in series [1] (compared with fish oil group without XENICAL); “statistically higher” in series [1] (fed 21 days, compared with fish oil + XENICAL, all P values lower than 0.05, listed as sn-1(3) MAG that contained EPA); “significantly higher” in series [1] (fed 21 days, compared with fish oil + XENICAL, all P values lower than 0.05, listed as sn-1(3)MAGs). For the same compound, the “chronic effect: accretion of EPA in erythrocytes as percentage of total fatty acids” value in series [2] (after 21 days, with XENICAL) is “statistically significant”; in series [2] (after 21 days, with XENICAL, listed as sn-1(3)MAGs), “significantly higher”. Besides, the “chronic effect: accretion of EPA in plasma as percentage of total fatty acids” value in series [2] (after 21 days, with XENICAL, relative to fish oil + XENICAL, p=0.0003 (FIG. 7)) is given as “statistically significant”. For the same compound, the “carrier for EPA (overall conclusion of the clinical trial)” value in series [2] (human subjects treated with XENICAL, compared with fish oil (TAG)) is reported as “better carrier for EPA than fish oil (TAG)”.
